The results in this text go back to US10150755B2, “ASK1 inhibitor compounds and uses thereof” (Seal Rock Therapeutics, Inc., priority 2017, dated 2018).

The structures appear in SMILES notation.

Sequence of ASK1 (Q99683 649-946 limits assumed): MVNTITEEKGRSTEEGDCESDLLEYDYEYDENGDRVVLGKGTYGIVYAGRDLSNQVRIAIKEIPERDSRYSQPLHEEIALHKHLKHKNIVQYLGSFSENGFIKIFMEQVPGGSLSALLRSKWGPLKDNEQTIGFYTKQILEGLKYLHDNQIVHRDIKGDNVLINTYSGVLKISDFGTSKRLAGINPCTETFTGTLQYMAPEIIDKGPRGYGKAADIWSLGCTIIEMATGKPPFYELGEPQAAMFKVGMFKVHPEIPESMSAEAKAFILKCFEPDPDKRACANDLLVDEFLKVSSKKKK

The target of the experiment is ASK1 (Homo sapiens (Human), UniProt Q99683). Briefly: ASK1 Kinase Assay (Promega ASK1 Kinase Enzyme System, ADP-Glo). As to conditions: enzyme 50 nM, ATP 10 μM. It counts as biochemical. The procedure:
The ASK1 enzymatic assay was run following Promega ASK1 Kinase Enzyme System (Cat #V3881). The kit provides the protocol, enzymes and all reagents necessary to run an assay. Firstly, the compounds, enzyme, substrate and ATP were diluted in provided assay buffer. The final concentration of the enzyme was 50 nM, substrate (Myelin basic protein) 1 μg/ml and ATP 10 μM. The compound and the enzyme were pre-incubated in a 384 well white solid bottom plate (Greiner, Cat#784075) for 10 minutes. After incubation, the substrate and ATP were added and incubated for further 60 minutes. After 60 minutes, ADP-Glo™ was added and plate was incubated for another 40 minutes. After 40 minutes, Kinase Detection Reagent was added and the plate was incubated for 45 minutes. After 45 minutes, plate was read on Perkin Elmer EnVision using luminescence read (0.5 seconds/well).
In general terms: ADP-Glo first removes unused ATP, then detects ADP through luciferase.
Usually IC50 stands for the point on the concentration scale where inhibition reaches its midpoint. High values mean a need for much substance, low ones inhibition by little substance. As to `Cc1cncc(-c2ccc3c(c2)C(=O)N(c2cccc(-c4nncn4C4CC4)n2)C3)c1` [Compound 54, 2-(6-(4-cyclopropyl-4H-1,2,4-triazol-3-yl)pyridin-2-yl)-6-(5-methylpyridin-3-yl)isoindolin-1-one], the IC50 was less than 0.2 µM.
In the case of `O=C1c2cc(-c3cncc(F)c3)ccc2CN1c1cccc(-c2nncn2C2CC2)n1` [Compound 55, 2-(6-(4-cyclopropyl-4H-1,2,4-triazol-3-yl)pyridin-2-yl)-6-(5-fluoropyridin-3-yl)isoindolin-1-one] it was 0.2 to 1 µM; in that of `O=C1c2cc(-c3cnc(C4CC4)nc3)ccc2CN1c1cccc(-c2nncn2C2CC2)n1` [Compound 56, 2-(6-(4-cyclopropyl-4H-1,2,4-triazol-3-yl)pyridin-2-yl)-6-(2-cyclopropylpyrimidin-5-yl)isoindolin-1-one], less than 0.2 µM; in that of `Cn1ccnc1-c1ccc2c(c1)C(=O)N(c1cccc(-c3nncn3C3CC3)n1)C2` [Compound 57, 2-(6-(4-cyclopropyl-4H-1,2,4-triazol-3-yl)pyridin-2-yl)-6-(1-methyl-1H-imidazol-2-yl)isoindolin-1-one], less than 0.2 µM.
Next, `O=C1c2cc(-c3ccccn3)ccc2CN1c1cccc(-c2nncn2C2CC2)n1` [Compound 58, 2-(6-(4-cyclopropyl-4H-1,2,4-triazol-3-yl)pyridin-2-yl)-6-(pyridin-2-yl)isoindolin-1-one]: less than 0.2 µM.
`O=C1c2cc(-c3cccnn3)ccc2CN1c1cccc(-c2nncn2C2CC2)n1` [Compound 59, 2-(6-(4-cyclopropyl-4H-1,2,4-triazol-3-yl)pyridin-2-yl)-6-(pyridazin-3-yl)isoindolin-1-one]: the 50% inhibitory concentration (IC50) was less than 0.2 µM.
In the case of `O=C1c2cc(-c3ccc(C4CC4)nn3)ccc2CN1c1cccc(-c2nncn2C2CC2)n1` [Compound 61, 2-(6-(4-cyclopropyl-4H-1,2,4-triazol-3-yl)pyridin-2-yl)-6-(6-cyclopropylpyridazin-3-yl)isoindolin-1-one] it was less than 0.2 µM; in that of `O=C1c2cc(-n3cc(C4CC4)nn3)ccc2CN1c1cccc(-c2nncn2C2CC2)n1` [Compound 62, 6-(4-cyclopropyl-1H-1,2,3-triazol-1-yl)-2-(6-(4-cyclopropyl-4H-1,2,4-triazol-3-yl)pyridin-2-yl)isoindolin-1-one], less than 0.2 µM.
Next, `O=C1c2cc(-c3cccnc3)c(F)cc2CN1c1cccc(-c2nncn2C2CC2)n1` [Compound 63, 2-(6-(4-cyclopropyl-4H-1,2,4-triazol-3-yl)pyridin-2-yl)-5-fluoro-6-(pyridin-3-yl)isoindolin-1-one]: less than 0.2 µM; `O=C1c2cc(-c3cccnc3)c(Cl)cc2CN1c1cccc(-c2nncn2C2CC2)n1` [Compound 65, 5-chloro-2-(6-(4-cyclopropyl-4H-1,2,4-triazol-3-yl)pyridin-2-yl)-6-(pyridin-3-yl)isoindolin-1-one]: less than 0.2 µM.
Compound `CN(C)c1cc2c(cc1-c1cccnc1)C(=O)N(c1cccc(-c3nncn3C3CC3)n1)C2` [Compound 67, 2-(6-(4-cyclopropyl-4H-1,2,4-triazol-3-yl)pyridin-2-yl)-5-(dimethylamino)-6-(pyridin-3-yl)isoindolin-1-one] registered an IC50 of less than 0.2 µM.
Next, `COC(=O)c1ccc2c(c1)C(=O)N(c1cccc(-c3nncn3C3CC3)n1)C2` [Compound 72, methyl 2-(6-(4-cyclopropyl-4H-1,2,4-triazol-3-yl)pyridin-2-yl)-3-oxoisoindoline-5-carboxylate]: less than 0.2 µM; `O=C(O)c1ccc2c(c1)C(=O)N(c1cccc(-c3nncn3C3CC3)n1)C2` [Compound 73, 2-(6-(4-cyclopropyl-4H-1,2,4-triazol-3-yl)pyridin-2-yl)-3-oxoisoindoline-5-carboxylic acid]: less than 0.2 µM.
In turn, `CN(C)C(=O)c1ccc2c(c1)C(=O)N(c1cccc(-c3nncn3C3CC3)n1)C2` [Compound 74, 2-(6-(4-cyclopropyl-4H-1,2,4-triazol-3-yl)pyridin-2-yl)-N,N-dimethyl-3-oxoisoindoline-5-carboxamide] gave a 50% inhibitory concentration (IC50) of 0.2 to 1 µM.
Next, `O=C1c2ccccc2CN1c1cccc(-c2nnc3n2CCC3)n1` [Compound 76, 2-(6-(6,7-dihydro-5H-pyrrolo[2,1-c][1,2,4]triazol-3-yl)pyridin-2-yl)isoindolin-1-one]: 0.2 to 1 µM.
In the case of `O=C1c2ccccc2CN1c1cccc(-c2nnc3n2CCCC3)n1` [Compound 77, 2-(6-(5,6,7,8-Tetrahydro-[1,2,4]triazolo[4,3-a]pyridin-3-yl)pyridin-2-yl)isoindolin-1-one] it was 1 to 10 µM.
In the case of `O=C1c2ccccc2CN1c1cccc(-c2nnc3n2[C@@H](CO)CC3)n1` [Compound 79, (R)-2-(6-(5-(hydroxymethyl)-6,7-dihydro-5H-pyrrolo[2,1-c][1,2,4]triazol-3-yl)pyridin-2-yl)isoindolin-1-one] it was less than 0.2 µM.
The compound `O=C1c2ccccc2CN1c1cccc(-c2nnc3n2[C@H](CO)CC3)n1` [Compound 81, (S)-2-(6-(5-(Hydroxymethyl)-6,7-dihydro-5H-pyrrolo[2,1-c][1,2,4]triazol-3-yl)pyridin-2-yl)isoindolin-1-one] came in with a 50% inhibitory concentration (IC50) of 1 to 10 µM.
Next, `O=C1c2ccccc2CN1c1cccc(-n2nncc2C2CC2)n1` [Compound 83, 2-(6-(5-cyclopropyl-1H-1,2,3-triazol-1-yl)pyridin-2-yl)isoindolin-1-one]: less than 0.2 µM; `O=C1c2ccccc2CN1c1cccc(-n2ccnn2)n1` [Compound 84, 2-(6-(1H-1,2,3-triazol-1-yl)pyridin-2-yl)isoindolin-1-one]: 0.2 to 1 µM; `CC(C)n1cnnc1-c1cccc(N2Cc3ccc(-c4cccnc4)cc3C2=O)n1` [Compound 85, 2-(6-(4-isopropyl-4H-1,2,4-triazol-3-yl)pyridin-2-yl)-6-(pyridin-3-yl)isoindolin-1-one]: less than 0.2 µM.
In the case of `O=C1c2ccccc2CN1c1nccc(-c2nncn2C2CC2)n1` [Compound 86, 2-(4-(4-cyclopropyl-4H-1,2,4-triazol-3-yl)pyrimidin-2-yl)isoindolin-1-one] it was 1 to 10 µM; in that of `O=c1c2ccccc2[nH]n1-c1cccc(-c2nncn2C2CC2)n1` [Compound 87, 2-(6-(4-cyclopropyl-4H-1,2,4-triazol-3-yl)pyridin-2-yl)-1,2-dihydro-3H-indazol-3-one], 1 to 10 µM; in that of `Cn1c2ccccc2c(=O)n1-c1cccc(-c2nncn2C2CC2)n1` [Compound 88, 2-(6-(4-cyclopropyl-4H-1,2,4-triazol-3-yl)pyridin-2-yl)-1-methyl-1,2-dihydro-3H-indazol-3-one], 1 to 10 µM.
In the case of `O=c1c2ccccc2sn1-c1cccc(-c2nncn2C2CC2)n1` [Compound 89, 2-(6-(4-cyclopropyl-4H-1,2,4-triazol-3-yl)pyridin-2-yl)benzo[d]isothiazol-3(2H)-one] it was 1 to 10 µM.
